# Data from US20210009551A1, “COMPOUNDS AND METHODS FOR TREATING FIBROSIS OR CANCER” (THE REGENTS OF THE UNIVERSITY OF CALIFORNIA, priority 2016, published 2021).
# Values joined by “and” are separate entries in the source; they are usually repeats but may differ in a detail not shown here. Identical values can stand only once. “Also recorded” adds a separate entry of the source.
# Experiments:
# [1] = biological target: T1, human TGFbeta receptor I and II (Homo sapiens, UniProt P36897); test: In vitro TGFβ receptor kinase assay (pull down); assay type: biochemical; details: 20 μM
# T1 construct: expressed in transfected cells; host or cells: A549 cells, anti-Flag immunoprecipitate on Protein G-agarose
# T1 sequence (P36897 34-503): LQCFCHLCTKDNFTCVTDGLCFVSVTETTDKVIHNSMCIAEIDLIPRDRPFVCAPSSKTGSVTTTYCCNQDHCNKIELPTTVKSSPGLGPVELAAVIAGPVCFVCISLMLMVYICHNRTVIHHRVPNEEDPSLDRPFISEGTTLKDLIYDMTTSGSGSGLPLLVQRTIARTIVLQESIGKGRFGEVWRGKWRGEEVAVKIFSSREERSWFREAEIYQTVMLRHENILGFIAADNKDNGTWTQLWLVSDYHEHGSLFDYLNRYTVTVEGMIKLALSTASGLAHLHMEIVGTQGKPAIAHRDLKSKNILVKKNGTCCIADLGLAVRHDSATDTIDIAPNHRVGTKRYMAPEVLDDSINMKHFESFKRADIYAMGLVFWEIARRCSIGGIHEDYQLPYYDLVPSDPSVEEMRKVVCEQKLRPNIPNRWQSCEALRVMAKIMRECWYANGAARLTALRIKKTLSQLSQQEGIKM
# Protocol: In vitro TGFβ receptor kinase assay. A549 cells were transiently co-transfected with Flag-tagged human TGFbeta receptor I and II. After 24 hours the cells were lysed in 1% NP40 lysis buffer (1% NP40, 20 mM Tris pH7.6, 200 mM NaCl plus protease inhibitor cocktail, 10 mM NaF, 1 mM Na3VO4), and the type I and II receptors were immunoprecipitated using anti-Flag antibody and Protein G-agarose (Roche). The beads were washed three times with kinase buffer (0.01% Triton X-100, 25 mM HEPES, pH 7.4, 2 mM MnCl2, 10 mM MgCl2, 20 μM DTT, 0.1 mM NaF, 0.1 mM Na3 VO4). The kinase reactions were initiated by addition of 0.1 mM ATP in the presence or absence of inhibitors or lysate from A549 cells pre-treated with corilagin. The kinase reactions were terminated by addition of an equal volume of 2×sample buffer. The TGFbeta receptor kinase activity was analyzed by SDS-PAGE and immunoblotting with anti-phosphotyrosine monoclonal antibody 4G10 (EMD Millipore) and anti-Flag antibody.
# [2] = system: C57BL/6 mice, intratracheal bleomycin; test: Bleomycin fibrosis model; assay type: in vivo
# Protocol: For histological assessment of lung collagen, frozen sections of the left lung were stained using Masson's Trichrome stain kit (American MasterTech, Lodi, Calif., USA).
# Bleomycin fibrosis model. Eight-week old C57BL/6 mice were intratracheally instilled with saline or 1.9 units/kg of bleomycin (Sigma-Aldrich). Mice were implanted with osmotic pumps loaded with ellagic acid salt (24 mg/kg/day, Day 10-Day 17), fed with red raspberry diet (Day 0-Day 21), or gavaged with corilagin (100 mg/kg, Day 10-Day 21). Controls were treated with control pump, control diet, or vehicle in the same formulation. The lungs were lavaged and followed by OCT embedding for imaging or snap freezing in liquid nitrogen for protein extraction or hydroxyproline assay.
# Collagen content Lung or aorta collagen content was evaluated using hydroxyproline assay. Briefly, whole left lung tissue or aorta was hydrolyzed in 1 ml 12N HCl at 110° C. for 24 h and the hydroxyproline was detected by incubating with Chloramine T and p-dimethylaminobenzaldehyde and the absorbance was measured at 550 nm. Each sample was run in triplicate. Collagen content in lung or aorta tissues was expressed as micrograms of collagen per lung or aorta and was converted from micrograms of hydroxyproline.
# Solubility (statement) = assay type: physicochemical
# [3] = system: TGFβ1-induced epithelial-mesenchymal transition (EMT) in A549 adenocarcinoma cells; test: TGFβ1-induced EMT in A549 cells (image-based screen, immunoblot); assay type: cell-based; details: catechins 1 and 10 μM, 48 h
# Protocol: High throughput screen and high content imaging analysis. A549 cell-based screening of inhibitors to TGFβ1-induced EMT from a bioactive small molecule library was performed in 384-well plate format and the images were captured and analyzed using GE IN Cell 2000 as described previously^16.
# (§1) Immunoblot. Pulverized tissue and cells were lysed in RIP A buffer (150 mM NaCl, 50 mM Tris, pH 8.0, 1% Triton X-100, 0.5% sodium deoxycholate, 0.1% SDS, supplemented with protease and phosphatase inhibitors) and analyzed by immunoblotting. Densitometry was quantified using NIH Imaged software.
# human LOXL2 = biological target: T2, human LOXL2 (Homo sapiens, UniProt Q9Y4K0); test: Collagen crosslinking induced by recombinant LOXL2 in lung fibroblasts (Sircol assay); assay type: cell-based; details: primary human lung fibroblasts, 7 days
# T2 sequence (Q9Y4K0 26-774): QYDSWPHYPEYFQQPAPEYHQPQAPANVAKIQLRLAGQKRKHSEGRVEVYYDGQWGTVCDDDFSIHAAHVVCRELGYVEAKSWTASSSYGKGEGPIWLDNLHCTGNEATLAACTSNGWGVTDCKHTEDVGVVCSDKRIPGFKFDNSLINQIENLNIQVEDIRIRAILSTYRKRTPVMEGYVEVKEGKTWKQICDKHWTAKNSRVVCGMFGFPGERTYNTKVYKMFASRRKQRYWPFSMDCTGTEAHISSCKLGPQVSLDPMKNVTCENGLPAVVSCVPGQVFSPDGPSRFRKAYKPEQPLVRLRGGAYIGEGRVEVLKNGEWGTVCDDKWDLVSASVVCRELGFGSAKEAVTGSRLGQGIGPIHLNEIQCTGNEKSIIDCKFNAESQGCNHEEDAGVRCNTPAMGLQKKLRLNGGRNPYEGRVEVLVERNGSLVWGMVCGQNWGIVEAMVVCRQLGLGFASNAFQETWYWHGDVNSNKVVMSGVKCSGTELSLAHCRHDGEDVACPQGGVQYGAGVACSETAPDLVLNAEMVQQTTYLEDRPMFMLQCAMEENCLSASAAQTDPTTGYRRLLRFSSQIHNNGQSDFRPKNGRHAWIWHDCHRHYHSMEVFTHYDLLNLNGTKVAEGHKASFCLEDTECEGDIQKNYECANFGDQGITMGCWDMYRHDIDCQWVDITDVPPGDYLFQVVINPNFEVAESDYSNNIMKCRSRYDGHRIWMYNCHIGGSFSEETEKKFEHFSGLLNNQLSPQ
# Protocol: Preparation of insoluble cross-linked collagen. Fibroblasts were cultured on 10 cm dish until confluent. The medium was then changed to Dulbecco's modified Eagle's medium (DMEM) containing 5% FBS, 100 μM L-ascorbic acid with 500 kDa Dextran Sulfate at 100 μg/ml, and 50 ng/ml recombinant human LOXL2 (rhLOXL2) for 7 days^21,22. The cell layer was extracted with 0.5 M acetic acid and 0.1 mg/ml pepsin overnight at 4° C. The leftover insoluble fraction was further extracted and the insoluble cross-linked collagen measured using Sircol Insoluble Collagen Assay kit according to manufacture's instruction.
# [4] = biological target: T3, ALK5/TGFβRI catalytic domain (Homo sapiens, UniProt P36897); test: ALK5/TGFβRI catalytic domain kinase assay; assay type: biochemical
# T3 construct: ALK5/TGFβRI kinase assays using purified catalytic domain was performed
# T3 sequence (P36897 205-495 limits assumed): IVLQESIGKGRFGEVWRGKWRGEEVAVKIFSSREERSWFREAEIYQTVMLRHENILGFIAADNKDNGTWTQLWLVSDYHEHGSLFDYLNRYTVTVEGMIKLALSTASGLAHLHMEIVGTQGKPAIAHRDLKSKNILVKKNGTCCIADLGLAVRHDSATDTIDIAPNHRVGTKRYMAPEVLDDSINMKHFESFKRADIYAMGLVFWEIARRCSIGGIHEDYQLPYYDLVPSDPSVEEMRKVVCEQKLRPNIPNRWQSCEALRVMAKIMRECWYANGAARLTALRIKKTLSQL
# Protocol: ALK5/TGFβRI catalytic domain kinase assay. ALK5/TGFβRI kinase assays using purified catalytic domain was performed. The reaction buffer contains 20 mM Hepes (pH 7.5), 10 mM MgCl2, 1 mM EGTA, 0.02% Brij35, 0.02 mg/ml BSA, 0.1 mM Na3VO4, 2 mM DTT, and 200 μM NAC. In brief, ten 3-fold series dilutions of 3Abd and 2Abd starting at 100 μM was delivered into kinase reaction mixture with kinase, cofactors, and substrate. After 20 min incubation at room temperature, ^33P-ATP was delivered into the mixture to initiate the reaction. Kinase activity was detected 2 h later by P81 filter-binding method.
# [5] = system: TGFβ1 signaling (p-smad3) in A549 cells; test: TGFβ1-induced p-smad generation in cells (immunoblot); assay type: cell-based; details: 0.5-10 μM
# Protocol: as §1
smiles,measurement,setting,value
"Oc1cccc(Cl)c1O [3 Cc, 3-chlorocatechol]",activity in a pull down kinase assay from cells overexpressing TGFβRI,[1],not
"O=c1oc2c(O)c(O)cc3c(=O)oc4c(O)c(O)cc1c4c23 [EA, Ellagic acid]",survival after intratracheal bleomycin,"[2]; EA chow day 21, EA pump day 17",improve survival
same,collagen accumulation after intratracheal bleomycin,[2]; ad libitum chow of 2% w/w raspberry extract rich in EA and EA precursors,substantially block
same,solubility,Solubility (statement),poorly soluble
"Oc1cc(O)c2c(c1)O[C@H](c1ccc(O)c(O)c1)[C@H](O)C2 [EC, epicatechin]",inhibition of snail 1 and fibronectin in TGFβ1 stimulated A549 cells,[3],no activity
"Oc1cc(O)c2c(c1)O[C@H](c1cc(O)c(O)c(O)c1)[C@H](O)C2 [EGC, epigallocatechin]",inhibition of snail 1 and fibronectin in TGFβ1 stimulated A549 cells,[3],potent inhibitor
"CC(=O)N[C@@H](CS)C(=O)O [NAC, N-acetylcysteine]",effect on collagen crosslinking induced by recombinant LOXL2,human LOXL2,no effect
NC(=O)c1ccc(-c2nc(-c3ccc4c(c3)OCO4)c(-c3ccccn3)[nH]2)cc1 [SB431542],effect on collagen crosslinking induced by recombinant LOXL2,human LOXL2,no effect
"Nc1c(O)cccc1O [Target 2Abd, 2-aminobenzene-1,3-diol]",direct inhibition of TGFβRI kinase activity,[4],not
same,inhibition of TGFβ1-induced p-smad3 and snail 1 without pre-incubation and regardless of LOXL2 expression,[5],not
"Nc1cccc(O)c1O [Target 3Abd, 3-aminobenzene-1,2-diol]",direct inhibition of TGFβRI kinase activity,[4],directly inhibit; also recorded: directly blocked
same,IC50,"[4]; ten doses starting from 100 μM, 33P-ATP",~3 µM and 3 µM
same,inhibition of TGFβ1-induced p-smad3 and snail 1 without pre-incubation and regardless of LOXL2 expression,[5],potent inhibitor
same,activity in a pull down kinase assay from cells overexpressing TGFβRI,[1],blocked activity
"Nc1ccc(O)c(O)c1 [Target 4Abd, 4-aminobenzene-1,2-diol]",inhibition of TGFβ1-induced p-smad3 and snail 1 without pre-incubation and regardless of LOXL2 expression,[5],not
